The text below walks through data of patent US7348155B2, “Method for identifying compounds for treating aging processes in the coronary circulatory system” (Sanofi-Aventis Deutschland GmbH, priority 2001, dated 2008).

Where “and” joins values, the source holds several entries; their conditions need not be identical. Equal entries are not always repeated.

What all share (assay type): cell-based
Assay [1] concerns fibroblasts from human hearts. As to the kind of experiment: Induction of mRNAs (collagen 1, MMP2, TGFbeta1, CTGF) in heart fibroblasts, real-time PCR. Conditions: 1 μM, 6 hours stimulation, fibroblasts from three human hearts, GAPDH mRNA as standard reference. As for the experimental part:
Fibroblasts were isolated from human hearts as described in Cell and Tissue Research 286, 145-153 (1996). 96-98% of the resulting cell culture consisted of fibroblasts.
For the purpose of implementing this procedure, heart tissue was cut into small pieces and incubated three times, at 37° C. for 20 minutes, in KHB (Krebs Henseleit buffer) containing 2 mg of collagenase/ml and 2 mg of dispase/ml. The homogenates were combined and then centrifuged. The sediments were taken up in 10 ml of KHB. The cells were added, in portions of in each case 2 to 3 ml, to uncoated plastic containers. The volume was made up to 10 ml with DMEM (Dulbecco's modification of Eagle's medium) containing […] and 10% FCS (fetal calf serum). After having been incubated at 37° C. for 1 hour, the cells were washed twice with PBS (phosphate-buffered saline) and subsequently cultured, at 37° C. and 5% CO2, for approx. 4-8 weeks until 90% confluence had been reached. There then followed two further passages of in each case 4 weeks' duration. The cells employed in the present experiments were used after the second passage and at 70% to 90% confluence (approx. 3 months after isolation).
The reagents for implementing the cell culture techniques were obtained from Gibco BRL Life Technologies. The cells were first of all kept, at 37° C., in serum-free DMEM containing 4000 mg of glucose/l, 2 mM L-glutamine, 100 μg/0.1 mg of penicillin/streptomycin/ml and 0.1% BSA (bovine serum albumin) before angiotensin II or urotensin II was added, […] RNA was then prepared from the cells after 6 hours.
The RNA was isolated by means of standard methods using guanidinium chloride.
Reverse transcriptase (10 units/ng of RNA) was used to transcribe 500 ng of the RNA from each sample into DNA. For degrading the DNA, the entire volume, containing approx. 8-10 μg of RNA, was incubated with DNase I.
The RNAs were quantified using a LightCycler and a Fast Start SYBR Green RT-PCR kit supplied by Roche Molecular Biochemicals. Corresponding kits from other companies such as Applied Biosystems, Bio-Rad or Stratagene are also suitable for the same purpose. […] The quantities were equalized using GAPDH mRNA as the control.
Fibroblasts were isolated from three human hearts and used in the […]. […] The mRNAs (collagen 1, matrix metalloproteinase 2, TGFbeta1 and CTGF) were quantified by real-time PCR using a LightCycler™. […] Real-time PCR (polymerase chain reaction in real time) makes it possible to determine specific nucleic acids quantitatively. […]

The test system of assay [2] is human cardiac fibroblasts from healthy donor hearts. As to the kind of experiment: Procollagen type I C-peptide ELISA (collagen synthesis) in fibroblasts from control (healthy donor) hearts. Conditions: 10^−7 mol/l; for Collagen synthesis (procollagen type I C-peptide, Absorption, in % of the controls), MV: mean value over control (donor) hearts. As for the experimental part:
(§1) Human cardiac fibroblasts were isolated from seven explanted human hearts in the terminal stage of cardiac insufficiency due to dilated cardiomyopathy. Four cell preparations were also made from healthy donor hearts. The fibroblasts were isolated in sterile 10 cm Petri dishes and cultured as previously described. After about 12 weeks of culturing, the cells reached the second passage with a confluence of approx. 80%. At this stage, the serum was withdrawn for 48 hours and the cells were subsequently stimulated for various intervals of time (between 6 and 24 hours) with UII, Ang II, TNFalpha, TGFβ, UII+TNFa, (in each case 10^−7 mol/l), or buffer (control). The determinations were carried out in duplicate or in triplicate. After the stimulation, the cells were washed, removed from the Petri dishes with 1 ml of PBS and centrifuged down in Eppendorf tubes (100 rpm, 5 min, 4° C.). The supernatant was discarded. 100 ul of lysis buffer (Nonidet P40, 0.5%, SDS 0.5%) were added to about 50 ul of cells and the mixture was incubated on ice for a further 20 minutes. The lysate was centrifuged once again (20 minutes, 1400 rpm, 4° C.) and the supernatant was used for the subsequent experiments. Protein was determined by means of the BCA (bicinchoninic acid) assay. The homogenates were diluted down to a protein concentration of 2 ug/ul.
(§2) Procollagen type I C-peptide in the fibroblasts from all the hearts was determined on a 96-well microtiter plate using a commercially obtainable solid-phase ELISA assay (TaKaRa Biomedicals, Shuzo Co, Ltd.). The assay was carried out in accordance with the manufacturer's instructions. […] The values for the procollagen type I C-peptide were determined using a standard curve of 10-640 ng/ml. The standards were provided by the manufacturer. The absorption values for the stimulations obtained with the controls (buffer) were set at 100%. The absorption values for the stimulated cells were related to the control values obtained for the same heart. In each case, the mean values from duplicate or triplicate determinations were used for the calculations. A bilateral, unpaired t test was used for statistically evaluating the comparison of the stimulation responses in control cells and in cardiac insufficiency cells.

Assay [3] deals with human cardiac fibroblasts from explanted hearts in the terminal stage of cardiac insufficiency. As to the kind of experiment: Procollagen type I C-peptide ELISA (collagen synthesis) in fibroblasts from hearts in the terminal stage of cardiac insufficiency (EFH). Conditions: 10^−7 mol/l; for Collagen synthesis (procollagen type I C-peptide, Absorption, in % of the controls), MV: mean value over EFH hearts (SEM as spread). As for the experimental part:
as §1, with “At this stage, the serum was withdrawn for 48 hours and the cells were subsequently stimulated for various intervals of time (between 6 and 24 hours) with UII, Ang II, TNFalpha, TGFβ, UII+TNFa, (in each case 10^−7 mol/l), or buffer (control).” left out
as §2

Take “angiotensin II (DRVYIHPF; Angiotensin-2; UniProt P01019 25-32, looked up) [AII, reference compound]”: the “MMP 2 mRNA” value in assay [1] (control 0.43 +/− 0.2) is recorded as 0.22 +/− 0.1. For the same substance, the “CTGF mRNA” value in assay [1] (control 0.45 +/− 0.27) is reported as 0.34 +/− 0.9. Besides, the “Col 1 mRNA” value in assay [1] (control 0.56 +/− 0.1) is reported as 0.56 +/− 0.27. For the same substance, in assay [1] (control 0.60 +/− 0.09), the “TGFbeta1 mRNA” value is recorded as 0.71 +/− 0.07. For the same substance, the “Collagen synthesis (procollagen type I C-peptide, Absorption, in % of the controls)” value is reported as 84 % of the controls in assay [2] (control heart No. 3, 6 h); 92 % of the controls in assay [2] (control heart No. 3, 12 h); 88 % of the controls in assay [2] (control heart No. 5, 6 h); 142 % of the controls in assay [3] (EFH heart No. 1, 24 h); 471 % of the controls in assay [3] (EFH heart No. 4, 24 h); 94 % of the controls in assay [3] (EFH heart No. 10, 5 h). Moreover, the “Collagen synthesis (procollagen type I C-peptide, Absorption, in % of the controls)” value in assay [3] (EFH heart No. 11, 5 h) is 113 % of the controls. The “Collagen synthesis (procollagen type I C-peptide, Absorption, in % of the controls), MV” value is 88 % of the controls in assay [2]; 205+/−67 % of the controls and 205 % of the controls in assay [3] (listed as Ang II).
Regarding TGFβ, the “Collagen synthesis (procollagen type I C-peptide, Absorption, in % of the controls)” value in assay [2] (control heart No. 3, 6 h) is given as 84 % of the controls; in assay [2] (control heart No. 3, 12 h) it was 123 % of the controls; in assay [2] (control heart No. 5, 6 h), 71 % of the controls; in assay [2] (control heart No. 6, 6 h), 110 % of the controls; in assay [3] (EFH heart No. 1, 24 h) it was 166 % of the controls; in assay [3] (EFH heart No. 4, 24 h) it was 377 % of the controls. Moreover, the “Collagen synthesis (procollagen type I C-peptide, Absorption, in % of the controls)” value is on record as 142 % of the controls in assay [3] (EFH heart No. 10, 5 h) and 123 % of the controls in assay [3] (EFH heart No. 11, 5 h). The “Collagen synthesis (procollagen type I C-peptide, Absorption, in % of the controls), MV” value was 97 % of the controls in assay [2], 202 % of the controls in assay [3] and 202+/−52 % of the controls in assay [3] (listed as TGF β).
Take TNFa: the “Collagen synthesis (procollagen type I C-peptide, Absorption, in % of the controls)” value is reported as 81 % of the controls in assay [2] (control heart No. 3, 6 h); 92 % of the controls in assay [2] (control heart No. 3, 12 h); 77 % of the controls in assay [2] (control heart No. 5, 6 h); 92 % of the controls in assay [2] (control heart No. 6, 6 h); 166 % of the controls in assay [3] (EFH heart No. 1, 24 h); 262 % of the controls in assay [3] (EFH heart No. 4, 24 h). The “Collagen synthesis (procollagen type I C-peptide, Absorption, in % of the controls)” value in assay [3] (EFH heart No. 10, 5 h) is listed as 67 % of the controls; in assay [3] (EFH heart No. 11, 5 h), 91 % of the controls; in assay [3] (EFH heart No. 12, 12 h), 107 % of the controls; in assay [3] (EFH heart No. 13, 12 h) it was 126 % of the controls; in assay [3] (EFH heart No. 14, 12 h), 190 % of the controls. Also, the figures for the “Collagen synthesis (procollagen type I C-peptide, Absorption, in % of the controls), MV” value in assay [2], in assay [3] and in assay [3] (listed as TNFalpha) were 86 % of the controls, 139 % of the controls and 139+/−26 % of the controls, respectively.
